# Laboratory results as given in patent US10086028B2, “Method for treating vascular inflammation, improving skin beauty and improving male sexual function using ginseng berry” (AMOREPACIFIC CORPORATION, priority 2007, dated 2018).
# Columns and labels:
# Cyclooxygenase-2 (COX-2) = experiment: Inhibition of UV-induced COX-2 biosynthesis in human fibroblasts (western blotting); format: cell-based; conditions: UVA 15 J/cm^2, 2nd day, relative to UV control; sample 10 μg/mL
# Protocol: Human fibroblasts were cultured on a 12-well plate incubator to a concentration of 10^5 cells/well. Then, after irradiating UVA at 15 J/cm^2, the medium was replaced by one including the ginseng berry extract of Example 1 (0.1 μg/mL, 1 μg/mL and 10 μg/mL), the ginseng berry saponin concentrate of Example 2 (10 μg/mL), the ginseng root extract of Comparative Example 1 (0.1 μg/mL, 1 μg/mL and 10 μg/mL) or ginsenosides Rg1, Rg2, Rh1 or Re (10 μg/mL). On the 2nd day of culturing, the cells were harvested and the quantity of produced COX-2 was analyzed using western blotting. The result was calculated as a relative value with respect to the control group, which was irradiated with UV without treating with a test substance, using a densitometer.
# PGE2 = experiment: LPS-induced inflammatory factor PGE2 in mouse blood; format: in vivo; conditions: mouse blood about 12 h after LPS, intra-abdominal
# Protocol: (§1) Based on the experimental result in the cell level, the effect of controlling vascular inflammation of the ginseng berry extract was tested in an animal model. Mice were grouped into a non-treated group, an LPS-induced group, a group treated with the ginseng berry extract of Example 1 (50 μg/mL and 100 μg/mL), a group treated with the ginseng berry saponin concentrate of Example 2 (100 μg/mL), a group treated with the ginseng root extract of Comparative Example 1 (100 μg/mL) and groups treated with ginsenosides Rg1, Rg2, Rh1 or Re (10 μg/mL and 20 μg/mL), with 5 mice per each group.
# (§2) 100 mg of each test substance per kg body weight of mouse, diluted in saline solution (0.9% NaCl), was intra-abdominally injected three times from day 1 through day 3. 2 hours after the injection on day 3, LPS diluted in saline solution (1 μg/mL) was injected intra-abdominally at a concentration of about 4 mg per kg body weight of mouse to induce inflammation by inflammatory factors (PGE2, TNF-α and IL1-β). After approximately 12 hours, the abdomen of the mouse was cut open, and blood was taken from the artery of the heart and stored at […]. The blood was kept at room temperature for 30 minutes and, after centrifuge at 4° C. and 3,000 rpm for 10 minutes, the supernatant was kept at −20° C. Then, the inflammatory factors PGE2, TNF-α and IL1-β were identified by western blotting. Measurement was made twice and the mean value was calculated. The result is shown in Table 4 and FIG. 9 (PGE2 (ng/mL)), Table 5 and FIG. 10 (TNF-α (ng/mL)), and Table 6 and FIG. 11 (IL1-β (pg/mL)).
# Human epidermal cells = experiment: Hyaluronic acid production in human epidermal cells; format: cell-based; conditions: 48 hours, relative to control; sample 10 μg/mL
# Protocol: Human epidermal cells were cultured and the medium was replaced by one containing the ginseng berry extract of Example 1 (1 μg/mL, 10 μg/mL and 100 μg/mL), the ginseng berry saponin concentrate of Example 2 (10 μg/mL), the ginseng root extract of Comparative Example 1 (10 μg/mL) or ginsenosides Rg1, Rg2, Rh1 or Re (10 μg/mL) or a general medium (control). The cells were then cultured for 48 hours under the same conditions. Then, the quantity of hyaluronic acid in the groups was compared using a hyaluronic acid measurement kit. The result is given as relative value with respect to the control group in Table 16 and FIG. 20.
# [1] = test system: Tumor Necrosis Factor α (TNF-α); experiment: Inhibition of UV-induced TNF-α biosynthesis in human keratinocytes (ELISA); format: cell-based; conditions: UVB 30 mJ/cm^2, 6-24 hours, relative to UV control; sample 10 μg/mL
# Protocol: Human keratinocytes were cultured on a 12-well plate incubator to a concentration of 10^5 cells/well. Then, after irradiating UVB at 30 mJ/cm^2, the medium was replaced by one including the ginseng berry extract of Example 1 (0.1 μg/mL, 1 μg/mL and 10 μg/mL), the ginseng berry saponin concentrate of Example 2 (10 μg/mL), the ginseng root extract of Comparative Example 1 (0.1 μg/mL, 1 μg/mL and 10 μg/mL) or ginsenosides Rg1, Rg2, Rh1 or Re (10 μg/mL). After 6-24 hours of culturing, the cells were harvested and the quantity of TNF-α was analyzed using ELISA (Pharmingen 555212). The result was calculated as a relative value with respect to the control group, which was irradiated with UV without treating with a test substance.
# TNF-α = experiment: LPS-induced inflammatory factor TNF-α in mouse blood; format: in vivo; conditions: mouse blood about 12 h after LPS, intra-abdominal
# Protocol: as §1, §2
SMILES,COX-2 biosynthesis (%) (Cyclooxygenase-2 (COX-2)),"PGE2, Mean ± standard deviation (PGE2; group (10 μg/mL)) [ng/mL]","PGE2, Result 1 (PGE2; group (10 μg/mL)) [ng/mL]","PGE2, Result 2 (PGE2; group (10 μg/mL)) [ng/mL]","PGE2, Mean ± standard deviation (PGE2; group (20 μg/mL)) [ng/mL]","PGE2, Result 1 (PGE2; group (20 μg/mL)) [ng/mL]","PGE2, Result 2 (PGE2; group (20 μg/mL)) [ng/mL]",Hyaluronic acid production (%) (Human epidermal cells),TNF-α biosynthesis (%) [1] [%],"TNF-α, Mean ± standard deviation (TNF-α; group (10 μg/mL)) [ng/mL]","TNF-α, Result 1 (TNF-α; group (10 μg/mL)) [ng/mL]","TNF-α, Result 2 (TNF-α; group (10 μg/mL)) [ng/mL]","TNF-α, Mean ± standard deviation (TNF-α; group (20 μg/mL)) [ng/mL]","TNF-α, Result 1 (TNF-α; group (20 μg/mL)) [ng/mL]","TNF-α, Result 2 (TNF-α; group (20 μg/mL)) [ng/mL]"
CC(C)=CCC[C@](C)(O[C@@H]1O[C@H](CO)[C@@H](O)[C@H](O)[C@H]1O)[C@H]1CC[C@]2(C)[C@@H]1[C@H](O)C[C@@H]1[C@@]3(C)CC[C@H](O)C(C)(C)[C@@H]3[C@@H](O[C@@H]3O[C@H](CO)[C@@H](O)[C@H](O)[C@H]3O)C[C@]12C [Rg1],95,6.32 ± 0.04,6.29,6.35,6.26 ± 0.07,6.31,6.21,100,98,38.60 ± 2.69,36.7,40.5,34.55 ± 2.90,36.6,32.5
CC(C)=CCC[C@](C)(O)[C@H]1CC[C@]2(C)[C@@H]1[C@H](O)C[C@@H]1[C@@]3(C)CC[C@H](O)C(C)(C)[C@@H]3[C@@H](O[C@@H]3O[C@H](CO)[C@@H](O)[C@H](O)[C@H]3O[C@@H]3O[C@@H](C)[C@H](O)[C@@H](O)[C@H]3O)C[C@]12C [Rg2],97,6.15 ± 0.21,6,6.3,6.09 ± 0.09,6.15,6.02,105,101,35.05 ± 2.47,33.3,36.8,31.60 ± 1.98,30.2,33
CC(C)=CCC[C@](C)(O)[C@H]1CC[C@]2(C)[C@@H]1[C@H](O)C[C@@H]1[C@@]3(C)CC[C@H](O)C(C)(C)[C@@H]3[C@@H](O[C@@H]3O[C@H](CO)[C@@H](O)[C@H](O)[C@H]3O)C[C@]12C [Rh1],99,6.13 ± 0.04,6.15,6.1,5.46 ± 0.20,5.6,5.32,100,98,32.55 ± 5.16,28.9,36.2,32.15 ± 3.32,29.8,34.5
